We go through two molecules from US5025024A, “Therapeutically active fluoro-substituted compound” (priority 1988, dated 1991).

One may read the ED50 as the dose at which the effect has come halfway, by size or by number of responders.

SMILES strings stand for the structures.

Data set [1] in a line: Bioavailability in the Male Rat (AUC method). The data set is classed as in vivo, male rats of the Sprague-Dawley strain. The settings on record: id vs iv, 4 μmol/kg; for bioavailability: blood, 4 umol/kg, read-out: Bioavailability measured by the AUC-method, F %, Rat. The text has this: The results from tests on two different animal species, rat and dog, vary in regard to measured level of bioavailability for the same compound. We believe that the rat is the more relevant species for bioavailability testing. This is based on our belief that liver metabolism has the most predominant impact upon bioavailability, and that the liver metabolic pattern in man for this type of compounds is quite similar to that of the male rat (more so than of the female rat and the dog). Moreover, test results of bioavailability in the male rat will tend to give a broader "spread" compared with the test results in the dog, and thus the male rat model will give more clear differences in bioavailability between different compounds. Stated in another way, the bioavailability as tested in the male rat can be expected to give a better estimate of the relative differences in man between different test compounds compared with the test results obtained when using the same compounds in the dog.
(§1) Bioavailability is assessed by calculating the quotient between the area under plasma concentration (AUC) curve following intraduodenal (id) administration and intravenous (iv) administration from the rat or the dog. Low, therapeutically relevant doses, were used. This method is scientifically recognized as valid for assessing bioavailability (see for instance: M. Rowland and T. N. Tozer, Clinical Pharmacokinetics, 2nd ed., Lea & Febiger, London 1989, p 42).
Bioavailability in the Male Rat
Male adult rats of the Sprague-Dawley strain were used. One day, prior to the experiments, all rats were prepared by cannulation of the left carotid artery under anaesthesia. The rats used for the intravenous experiments, were also cannulated in the jugular vein. […]
The area under the blood concentration vs time curve, AUC, was determined by the linear trapezoidal rule and extrapolated to infinity by dividing the last determined blood concentration by the elimination rate constant in the terminal phase. The systemic bioavailability (F%) following intraduodenal administration was calculated as [formula]

Data set [2] is described as follows: Chemical Stability at pH 7. The data set is classed as physicochemical. The settings on record: pH 7, 37° C., aqueous buffer solution; for half-life: read-out: Chemical Stability at pH 7, half-life (t 1/2) (converted). On the procedure:
The chemical stability of various compounds of the invention has been followed kinetically at low concentration at 37° C. in aqueous buffer solution at different pH values. The results in Table 3 show the half life (t1/2) at pH 7, that is the time period after which half the amount of the original compound remains unchanged.

A short description of data set [3]: Inhibition of Gastric Acid Secretion in the Conscious Male Rat. The settings on record: in vivo, ratio ED50 iv/ED50 id, read-out: "Bioavailability" measured by the Rough Screening Model, Rat ED50 iv/ED50 id. It counts as in vivo, male rats of the Sprague-Dawley strain. The method, then: (§2) Since the bioavailability model described above is time and labour intensive, and requires a large number of plasma analyses, also a rough screening model, based on relative potencies to inhibit acid secretion, has been used (see for instance: A. Goth, Medical Pharmacology, 7th ed., C. V. Mosby Company, Saint Louis 1974, p 19). Thus, the ratio (called "Bioavailability" in Table 3) between the ED50 at intravenous administration and the ED50 at intraduodenal administration was calculated.
(§3) The potency for inhibition of acid secretion has been measured in the male rat and the dog, both intravenously and intraduodenally. When it comes to relevance of the animal test data for potency of a given compound in man for the present type of compounds, it is believed that potency in man will correspond to a level somewhere between what is measured in the male rat and what is measured in the dog.
(§4) Inhibition of Gastric Acid Secretion in the Conscious Male Rat
(§5) Male rats of the Sprague-Dawley strain were used. They were equipped with cannulated fistulae in the stomach (lumen) and the upper part of the duodenum, for collection of gastric secretions and administration of test substances, respectively. A fourteen days recovery period after surgery was allowed before testing commenced.
(§6) Before secretory tests, the animals were deprived of food but not water for 20 h. The stomach was repeatedly washed through the gastric cannula, and 6 ml of Ringer-Glucose given s.c. Acid secretion was stimulated with a infusion during 3.5 h (1.2 ml/h, s.c.) of pentagastrin and carbachol (20 and 110 nmol/kg h, respectively), during which time gastric secretions were collected in 30-min fractions. Test substances or vehicle were given iv or id at 90 min after starting the stimulation, in a volume of 1 ml/kg. Gastric juice samples were titrated to pH 7.0 with NaOH, 0.1 mol/L, and acid output calculated as the product of titrant volume and concentration. Further calculations were based on group mean responses from 4-5 rats. The acid output during the periods after administration of test substances or vehicle were expressed as fractional responses, setting the acid output in the 30-min period preceding administration to 1.0. Percentage inhibition was calculated from the fractional responses elicited by test compound and vehicle. ED50 -values were obtained from graphical interpolation on log dose-response curves, or estimated from single-dose experiments assuming a similar slope for all dose-response curves. An estimation of the bioavailability was obtained by calculating the ratio ED50 iv/ED50 id. The results reported are based on gastric acid secretion during the second hour after drug/vehicle administration.

The test system of data set [4] is gastric acid secretion. The data set is described as above. It counts as in vivo, male rats of the Sprague-Dawley strain. As to conditions: 2 h, pentagastrin and carbachol stimulation, second hour after administration. The method, then: as §2, §3, §4, §5, §6
Data set [5] deals with gastric acid secretion. Description: Inhibition of Gastric Acid Secretion in the Conscious Dog. It counts as in vivo, Harrier dogs. The settings on record: for ED50: Canis lupus familiaris, dog, histamine-stimulated, acid output 2 h after dosing. On the procedure:
as §3
(§7) Inhibition of Gastric Acid Secretion and Bioavailability in the Conscious Dog
(§8) Harrier dogs of either sex were used. They were equipped with a duodenal fistula for the administration of test compounds or vehicle and a cannulated ventricular fistula for the collection of gastric secretions.
Before secretory tests the animals were fasted for about 18 h but water was freely allowed. Gastric acid secretion was stimulated by a 4 h infusion of histamine dihydrochloride (12 ml/h) at a dose producing about 80% of the individual maximal secretory response, and gastric juice collected in consecutive 30-min fractions. Test substance or vehicle was given id or iv 1 h after starting the histamine infusion, in a volume of 0.5 ml/kg body weight. The acidity of the gastric juice samples were determined by titration to pH 7.0, and the acid output calculated. The acid output in the collection periods after administration of test substance or vehicle were expressed as fractional responses, setting the acid output in the fraction preceding administration to 1.0. Percentage inhibition was calculated from fractional responses elicited by test compound and vehicle. ED50 -values were obtained by graphical interpolation on log dose-response curves, or estimated from single-dose experiments under the assumption of the same slope of the dose-response curve for all test compounds. All results reported are based on acid output 2 h after dosing.

Data set [6] can be described thus: Bioavailability in the Conscious Dog (AUC method). The data set is classed as in vivo, Harrier dogs. As to conditions: plasma, id vs iv, AUCid/AUCiv, read-out: Bioavailability measured by the AUC-method, F %, Dog. On the procedure: as §1, §7, §8
Blood samples for the analysis of test compound concentration in plasma were taken at intervals up to 3 h after dosing. Plasma was separated and frozen within 30 min after collection. AUC (area under the plasma concentration-time curve), extrapolated to infinite time, was calculated by the linear trapezoidal rule. The systemic bioavailability (F%) after id administration was calculated as 100×(AUCid /AUCiv).

The mark [7] stands for this setting: id, read-out: Inhibition of acid secretion, Rat ED50, id.
Setting [8] is: iv, read-out: Inhibition of acid secretion, Rat ED50, iv.

`CC(C)Oc1ccnc(C[S+]([O-])c2nc3cc(F)ccc3[nH]2)c1` (stereo not drawn) [Ref., 5-fluoro-2-[[(4-isopropoxy-2-pyridinyl)methyl]-sulfinyl]-1H-benzimidazole]: the bioavailability in data set [1] was found to be 31%; in data set [3], 45%. Also, the “Bioavailability measured by the AUC-method, F %, Rat” value in data set [1] was 31%. Moreover, in data set [2], the “Chemical Stability at pH 7, half-life (t 1/2)” value was determined as 14 h. For the same molecule, the half-life in data set [2] is 14 h. Besides, the results for the ED50 in the data set on gastric acid secretion [4] (setting [7]) and in the data set on gastric acid secretion [4] (setting [8]) were 4 µmol/kg and 1.8 µmol/kg, respectively. Also, the “inhibition (of acid secretion), Dog 1” value in the data set on gastric acid secretion [5] (Dog 1, 3 μmol/kg, id) amounted to 95%. Besides, in the data set with gastric acid secretion [5] (Dog 2, 3 μmol/kg, id), the “inhibition (of acid secretion), Dog 2” value was found to be 98%.
Regarding `COc1ccnc(C[S+]([O-])c2nc3c(F)cccc3[nH]2)c1` (stereo not drawn) [Example 1, 4-fluoro-2-[[(4-methoxy-2-pyridinyl)methyl]sulfinyl]-1H-benzimidazole], the bioavailability was found to be 96% in data set [1], 95% in data set [6] and 40% in data set [3]. Further, the “Chemical Stability at pH 7, half-life (t 1/2)” value in data set [2] turned out to be 23 h. Besides, the half-life in data set [2] is 23 h. In addition, the ED50 with gastric acid secretion [4] (setting [7]) stood at 2.4 µmol/kg; in the data set on gastric acid secretion [4] (setting [8]), 0.96 µmol/kg; in the data set with gastric acid secretion [5] (id, read-out: Inhibition of acid secretion, Dog ED50, id) it was 0.9 µmol/kg; with gastric acid secretion [5] (iv, read-out: Inhibition of acid secretion, Dog ED50, iv), 0.8 µmol/kg.
